According to US7018796B2, “Preincubation assay methods” (Shionogi & Co., Ltd., priority 2000, dated 2006):

Experiments:
[1] = molecular target: T1, HCV RNA-dependent RNA polymerase (Hepatitis C virus genotype 1a, UniProt P27958); experiment: DIG-UTP assay without radioisotope-labeled substrate, without pre-incubation (Example 2); format: biochemical; conditions: no pre-incubation, I-1 0.5 μg/ml, 3′-dUTP 0.7 μM, A 100 μg/ml, B 50 μg/ml, C 25 μg/ml
T1 construct: HCV RNA-dependent RNA polymerase is encoded in the NS5B (nonstructural protein 5B) region of HCV; made in house; host or cells: insect cells or E. coli
Experimental: After mixing by a plate mixer, the solution was pre-incubated at 25° C. for 1 hr. • 10) On the other hand, the buffer I (10 μl) was transferred into another tube, and UTP (1 μM, 10 μl), DIG-UTP (300 μM, 1 μl), water (24 μl) and a test compound dissolved with dimethyl sulfoxide or water (5 μl) were added to the tube and mixed calmly. Concentrations of the compounds used were as follows.
• 11) The mixed solution (50 μl/well) described in 10) was transferred into each well after the pre-incubation described in 9), mixed by a plate mixer and then incubated at 25° C. for 1 hr. • 12) When the enzyme reaction was in 1 hr, the enzyme reaction was stopped by adding ethylenediaminetetraacetic acid (0.1 M, 50 μl/well). • 13) The plate was washed twice with PBS (200 μl/well) after end of the enzyme reaction. • 14) Next, alkaline phosphatase-labeled anti-DIG antibody (3 U/ml, 100 μl/well) diluted 250-fold with PBS containing skim milk (0.5%) was transferred each well. After mixing by a plate mixer, immuno-reaction was performed at 25° C. for 1 hr. • 15) Each well was washed twice with PBS (200 μl/well) containing skim milk (0.05%) and then washed twice with PBS (200 μl/well). • 16) Substrate solution (150 μl/well) for alkaline phosphatase was prepared by mixing of Tris-HCl (100 mM, pH 9.5), NaCl (100 mM), MgCl2 (5 mM) and p-nitrophenyl phosphate (6 mM) just before use. The substrate solution was transferred into each well of the plate, mixed by a plate mixer and then incubated at 25° C. for 1 hr until the color appears in the solution. • 17) The plate was set on a plate reader and the absorbance was measured at 405 nm. • 18) The inhibitory rate was calculated from the optical density (unit; OD) measured as follows. [formula]
Table 4 summarized the comparison between inhibitory rates in the assay with the pre-incubation and those in the assay without the pre-incubation.

[2] = molecular target: T1, HCV RNA-dependent RNA polymerase; experiment: Time course of HCV RdRp inhibitory effect against pre-incubation time and temperature (Examinations 3 and 4); format: biochemical; conditions: for Influence of pre-incubation on inhibitory effect at 2° C., 20° C. and 25° C. (FIG. 6, FIG. 7): pre-incubation at any temperature; for Influence of pre-incubation time on inhibitory effect (FIG. 5): pre-incubation time 0 to 180 min
Experimental: In the screening for HCV RNA-dependent RNA polymerase inhibitor, there is a dissociation of inhibitory effect as a different point between an assay method of the present invention and a prior assay method. […] Therefore, the influence of pre-incubation on the inhibitory value of enzyme inhibitor was determined. Using several compounds which evaluated RdRp inhibition in the prior assay method, the time course of HCV RdRp inhibitory effect was determined for 0 min, 15 min, 30 min, 45 min, 60 min, 90 min, 120 min, 150 min and 180 min as a pre-incubation time (FIG. 5).
Influence of pre-incubation on inhibitory value of enzyme inhibitor was determined in Examination 3. The temperature of pre-incubation in Examination 3 was changed and the time course of inhibitory effect was determined at variant temperature of pre-incubation.
Using several compounds, 3′-dUTP, compound I-1 and compound C, which evaluated RdRp inhibition in the prior assay method, the time course of HCV RdRp inhibitory effect was determined at 2° C., 20° C. and 25° C. as a pre-incubation temperature for 0 min, 20 min, 40 min, 60 min, 80 min, and 100 min as a pre-incubation time (FIG. 6, FIG. 7, FIG. 8).

T1 sequence (P27958 2421-3011): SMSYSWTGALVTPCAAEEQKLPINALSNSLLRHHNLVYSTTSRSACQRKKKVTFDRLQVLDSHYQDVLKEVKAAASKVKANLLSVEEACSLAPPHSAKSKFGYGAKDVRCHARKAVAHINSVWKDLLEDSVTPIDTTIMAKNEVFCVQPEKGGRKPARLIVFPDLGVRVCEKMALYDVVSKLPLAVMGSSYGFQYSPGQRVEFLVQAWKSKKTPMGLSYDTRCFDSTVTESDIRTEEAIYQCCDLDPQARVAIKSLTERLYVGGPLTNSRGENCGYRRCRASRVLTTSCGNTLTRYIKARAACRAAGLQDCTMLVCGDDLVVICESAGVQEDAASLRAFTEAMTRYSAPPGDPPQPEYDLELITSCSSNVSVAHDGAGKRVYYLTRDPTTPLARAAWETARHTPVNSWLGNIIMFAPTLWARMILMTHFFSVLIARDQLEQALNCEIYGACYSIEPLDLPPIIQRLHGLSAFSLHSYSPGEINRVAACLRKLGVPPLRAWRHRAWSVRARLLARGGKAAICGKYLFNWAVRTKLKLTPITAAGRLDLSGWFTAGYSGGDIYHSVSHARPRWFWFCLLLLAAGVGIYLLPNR

## O=c1ccn([C@@H]2O[C@H](COP(=O)(O)OP(=O)(O)OP(=O)(O)O)C[C@H]2O)c(=O)[nH]1 [3′-dUTP, 3′-deoxyuridine triphosphate]
[1]
  Inhibitory rate, treatment of pre-incubation −: 44%
[2]; 0 to 100 min
  Influence of pre-incubation on inhibitory effect at 2° C., 20° C. and 25° C. (FIG. 6, FIG. 7): not influence by pre-incubation at any temperatures
[2]
  Influence of pre-incubation time on inhibitory effect (FIG. 5): not a large influence by pre-incubation

## Cc1oc(-c2ccccc2)nc1CCOc1ccc(C=C2C(=O)NC(=O)NC2=O)cc1 [Compound A]
[1]
  Inhibitory rate, treatment of pre-incubation −: 87%
[2]
  Influence of pre-incubation time on inhibitory effect (FIG. 5): inhibitory effect decreased with increasing pre-incubation time

## O=C1NC(=O)C(=Cc2ccc(OCCc3cccc4ccccc34)cc2)C(=O)N1 [Compound B]
[1]
  Inhibitory rate, treatment of pre-incubation −: 28%
[2]
  Influence of pre-incubation time on inhibitory effect (FIG. 5): inhibitory effect decreased with increasing pre-incubation time

## CCCCC1=N/C(=C\c2ccccc2OCC(=O)O)C(=O)N1Cc1ccc(-c2ccccc2-c2nnn[nH]2)cc1 [Compound C]
[1]
  Inhibitory rate, treatment of pre-incubation −: 87%
[2]; pre-incubation temperature 2° C., 0 to 100 min
  Influence of pre-incubation on inhibitory effect at 2° C. (FIG. 8): did not appear clear influence
[2]; pre-incubation temperature 20° C. and 25° C., 0 to 100 min
  Influence of pre-incubation on inhibitory effect at 20° C. and 25° C. (FIG. 8): inhibitory effect decreased greatly
[2]
  Influence of pre-incubation time on inhibitory effect (FIG. 5): inhibitory effect decreased with increasing pre-incubation time

## O=C(O)/C(O)=C/C(=O)c1cccc(O)c1 [Compound I-1]
[1]; read-out: Inhibitory rate, treatment of pre-incubation −
  inhibition at 0.5 µg/mL: 59%
[2]; 0 to 100 min
  Influence of pre-incubation on inhibitory effect at 2° C., 20° C. and 25° C. (FIG. 6, FIG. 7): not influence by pre-incubation at any temperatures
